Data on 13 compounds can be found in publication PMC11209699 (ACS Omega, 2024).

Values joined by “and” are separate entries in the source; they are usually repeats but may differ in a detail not shown here. Equal values may be shown once. “Also recorded” adds a separate entry of the source.

One data set addresses MCL-1 (Homo sapiens, UniProt Q07820). As to the kind of experiment: fluorescence polarization. Conditions: for binding to MCL-1 (in words): tested up to 100 μM. A general note: In fluorescence polarisation assays a small probe gives low polarisation when free and higher when bound to something large.
Data set [1] relates to MV-4–11 cells. As to the kind of experiment: annexin V and PI double-staining flow cytometry. In kind it is cell-based. Conditions: 24 h. For orientation: In flow cytometry, cells or beads pass a laser one at a time.
The subject of data set [2] is MV-4–11 cells. Description: CCK-8 cell viability. The format is cell-based. Conditions: Homo sapiens, MV4-11, 48 h, read-out: cytotoxicity (IC50) MV-4–11.
A further data set has as its system H929 cells. Description: CCK-8 cell viability. In kind it is cell-based. The settings on record: Homo sapiens, NCI-H929, 48 h, read-out: cytotoxicity (IC50) H929.
The nature of another data set: CCK-8 cell viability. Conditions: human, HEK293T cells. In kind it is cell-based.
The subject of data set [3] is MV-4–11 xenograft mice. Description: in vivo antitumor study, MV-4–11 xenograft mouse model. The settings on record: for effect on body weight after 20 days (in words): 90% confidence level vs vehicle.
Another data set has as its system HL-60 cells. Description: CCK-8 cell viability. The format is cell-based. The settings on record: Homo sapiens, HL-60, 48 h, read-out: cytotoxicity (IC50) HL-60.
For the next data set, the system named is RS4;11 cells. Description: CCK-8 cell viability. In kind it is cell-based. Conditions: Homo sapiens, RS4-11, 48 h, read-out: cytotoxicity (IC50) RS4;11.
The test system of another data set is HeLa cells. As to the kind of experiment: CCK-8 cell viability. The format is cell-based. Conditions: Homo sapiens, 48 h, read-out: cytotoxicity (IC50) HeLa.
In another data set the target is BCL-2 (Homo sapiens, UniProt P10415). Description: fluorescence polarization. The settings on record: FP assay.
Chain of BCL-2 (P10415 1-207): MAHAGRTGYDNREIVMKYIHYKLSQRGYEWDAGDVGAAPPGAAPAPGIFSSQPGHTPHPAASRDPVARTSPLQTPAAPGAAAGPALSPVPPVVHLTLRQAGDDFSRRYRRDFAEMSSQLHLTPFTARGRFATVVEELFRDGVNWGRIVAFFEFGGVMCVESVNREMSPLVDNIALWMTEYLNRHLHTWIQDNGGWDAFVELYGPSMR
The target in another data set is BCL-xL (Homo sapiens, UniProt Q07817). As to the kind of experiment: fluorescence polarization. Conditions: FP assay, tested up to 100 μM.
Chain of BCL-xL (Q07817 45-233): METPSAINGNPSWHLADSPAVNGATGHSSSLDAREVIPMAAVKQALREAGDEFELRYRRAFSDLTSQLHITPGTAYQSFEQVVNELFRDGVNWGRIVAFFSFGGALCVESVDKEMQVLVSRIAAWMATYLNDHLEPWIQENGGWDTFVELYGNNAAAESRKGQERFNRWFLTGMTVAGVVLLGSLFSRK
Data set [4] relates to MV-4–11 cells. Description: kinetics study in cells. In kind it is in vitro ADME. The settings on record: GQN-B37-Me given to MV-4–11 cells at 40 μM, monitored over 8 h.
Data set [5] can be described thus: stability in liver microsomes. In kind it is in vitro ADME. Conditions: monkey, pooled monkey liver microsomes. A general note: Liver microsomes are vesicles of endoplasmic reticulum, rich in cytochrome P450 enzymes.
Data set [6] deals with MCL-1/BIM interaction in H929 cells (Homo sapiens, UniProt Q07820). As to the kind of experiment: coimmunoprecipitation. The format is cell-based. Conditions: 10 μM, 10 h.
Chain of MCL-1/BIM interaction in H929 cells (Q07820 whole entry): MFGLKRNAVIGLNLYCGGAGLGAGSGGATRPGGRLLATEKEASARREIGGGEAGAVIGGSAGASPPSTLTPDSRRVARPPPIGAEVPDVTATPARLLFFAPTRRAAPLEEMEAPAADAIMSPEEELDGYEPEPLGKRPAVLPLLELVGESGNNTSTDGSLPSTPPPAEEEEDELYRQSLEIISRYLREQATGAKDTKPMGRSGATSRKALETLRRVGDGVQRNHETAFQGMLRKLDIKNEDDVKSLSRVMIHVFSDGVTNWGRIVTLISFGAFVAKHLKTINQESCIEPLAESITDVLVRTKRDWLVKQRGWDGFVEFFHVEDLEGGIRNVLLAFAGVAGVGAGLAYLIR
Data set [7] concerns PARP and caspase-3 in H929 cells. As to the kind of experiment: Western blot of PARP and caspase-3 cleavage. The format is cell-based. The settings on record: 5 to 40 μM, 24 h.
Data set [8] is described as follows: stability in liver microsomes. The format is in vitro ADME. Conditions: dog, pooled dog liver microsomes.
A short description of data set [9]: stability in liver microsomes. Conditions: human. In kind it is in vitro ADME.
The next data set can be described thus: stability in GSH. The format is in vitro ADME. Conditions: exposure to GSH for up to 2 h.
A short description of data set [10]: stability in liver microsomes. In kind it is in vitro ADME. The settings on record: rat, pooled rat liver microsomes.
Data set [11] relates to MV-4–11 xenograft mice. The format is in vivo, mouse. Conditions: after 20 days treatment.

Chain of MCL-1 (Q07820 152-327): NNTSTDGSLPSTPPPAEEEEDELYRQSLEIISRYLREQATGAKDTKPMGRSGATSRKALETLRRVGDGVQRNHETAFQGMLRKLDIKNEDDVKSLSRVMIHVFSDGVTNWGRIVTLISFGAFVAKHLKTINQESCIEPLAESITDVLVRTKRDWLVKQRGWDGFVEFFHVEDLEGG

On to `CC1(C)CCC(CN2CCN(c3ccc(C(=O)NS(=O)(=O)c4ccc(NCC5CCOCC5)c([N+](=O)[O-])c4)c(Oc4cnc5[nH]ccc5c4)c3)CC2)=C(c2ccc(Cl)cc2)C1` [ABT-199, reference compound], for which, on MCL-1 (FP assay), the “binding to MCL-1 (in words)” value is given as “no obvious binding”.
`Cc1c2c(nn1C)CSCc1cc(n(C)n1)CSc1cc(c3ccccc3c1)OCCCc1c(C(=O)O)n(C)c3c-2c(Cl)ccc13` [AZD5991, reference compound]: the “cells in quadrant Q3-2 (late apoptosis, annexin V (+) and PI (+))” value in the data set with MV-4–11 cells [1] (1 μM, MV-4–11 cells) is reported as approximately 75%. Moreover, the IC50 (in general, the concentration that inhibits the measured activity by half) in the data set with MV-4–11 cells [2] was less than 0.01 µM; in the data set on H929 cells, 0.05 ± 0.01 µM. The same compound yielded an IC50 at 48 h in “CCK-8 cell viability” of more than 20 µM. Besides, the “tumor growth inhibition on day 20” value in the data set on MV-4–11 xenograft mice [3] (10 mg/kg i.p. every 2 days for 20 days) is 56%. Moreover, the “effect on body weight after 20 days (in words)” value in the data set on MV-4–11 xenograft mice [3] (10 mg/kg i.p. every 2 days) is “caused significant body weight loss”.
On to `O=C(/C=C/c1cn(-c2ccccc2)nc1-c1ccc2ccccc2c1)N[C@@H](Cc1c[nH]c2ccccc12)C(=O)O` [GQN-B18-E, (E)-(3-(3-(Naphthalen-2-yl)-1-phenyl-1H-pyrazol-4-yl)acryloyl)-L-tryptophan], for which the IC50 was more than 50 µM with MV-4–11 cells [2]; more than 50 µM with H929 cells; more than 20 µM with HL-60 cells; more than 20 µM in the data set on RS4;11 cells; more than 50 µM with HeLa cells. The compound also yielded an IC50 at 48 h in the data set “CCK-8 cell viability” of more than 20 µM.
With `COC(=O)[C@H](Cc1c[nH]c2ccccc12)NC(=O)/C=C/c1cn(-c2ccccc2)nc1-c1ccc2ccccc2c1` [GQN-B18-Me, Methyl-(E)-(3-(3-(naphthalen-2-yl)-1-phenyl-1H-pyrazol-4-yl)acryloyl)-L-tryptophanate], the IC50 was more than 20 µM in the data set on MV-4–11 cells [2]; 7.97 ± 1.01 µM with H929 cells; more than 20 µM with HL-60 cells; more than 20 µM in the data set on RS4;11 cells; more than 20 µM in the data set on HeLa cells. The IC50 at 48 h in the data set “CCK-8 cell viability” was more than 20 µM. Besides, the “binding to MCL-1 (in words)” value at MCL-1 (FP assay) is given as “totally abolished; also recorded: complete loss of binding”.
Turning to `O=C(/C=C/c1cn(-c2cccc(Cl)c2)nc1-c1ccc(C2CCCCC2)cc1)N[C@@H](Cc1c[nH]c2ccccc12)C(=O)O` [GQN-B33-E, (E)-(3-(1-(3-Chlorophenyl)-3-(4-cyclohexylphenyl)-1H-pyrazol-4-yl)acryloyl)-L-tryptophan], the IC50 is more than 20 µM with MV-4–11 cells [2]; more than 50 µM in the data set with H929 cells; more than 50 µM in the data set with HL-60 cells; more than 20 µM in the data set with RS4;11 cells; more than 50 µM with HeLa cells. This compound also yielded an IC50 at 48 h in “CCK-8 cell viability” of more than 20 µM.
Take `COC(=O)[C@H](Cc1c[nH]c2ccccc12)NC(=O)/C=C/c1cn(-c2cccc(Cl)c2)nc1-c1ccc(C2CCCCC2)cc1` [GQN-B33-Me, Methyl-(E)-(3-(1-(3-chlorophenyl)-3-(4-cyclohexylphenyl)-1H-pyrazol-4-yl)acryloyl)-L-tryptophanate]: the IC50 was more than 20 µM with MV-4–11 cells [2]; 4.64 ± 0.01 µM with H929 cells; more than 50 µM with HL-60 cells; more than 20 µM in the data set with RS4;11 cells; more than 50 µM in the data set with HeLa cells. Moreover, the IC50 at 48 h in the data set “CCK-8 cell viability” was more than 20 µM.
Regarding `Nc1ccc(-c2nn(-c3cccc(Cl)c3)cc2/C=C/C(=O)N[C@@H](Cc2c[nH]c3ccccc23)C(=O)O)cc1` [GQN-B35-E, (E)-(3-(3-(4-Aminophenyl)-1-(3-chlorophenyl)-1H-pyrazol-4-yl)acryloyl)-L-tryptophan], the IC50 with MV-4–11 cells [2], in the data set on H929 cells, in the data set on HL-60 cells, with RS4;11 cells and in the data set on HeLa cells was more than 50 µM throughout. In “CCK-8 cell viability”, this compound gave an IC50 at 48 h of more than 20 µM.
Regarding `COC(=O)[C@H](Cc1c[nH]c2ccccc12)NC(=O)/C=C/c1cn(-c2cccc(Cl)c2)nc1-c1ccc(N)cc1` [GQN-B35-Me, Methyl-(E)-(3-(3-(4-aminophenyl)-1-(3-chlorophenyl)-1H-pyrazol-4-yl)acryloyl)-L-tryptophanate], the IC50 with MV-4–11 cells [2] was 20.52 ± 0.12 µM; in the data set with H929 cells, 3.89 ± 0.07 µM; in the data set with HL-60 cells, more than 20 µM; in the data set with RS4;11 cells it was more than 20 µM; in the data set on HeLa cells, more than 50 µM. In addition, in the data set “CCK-8 cell viability”, the IC50 at 48 h is more than 20 µM.
As for `O=C(/C=C/c1cn(-c2cccc(Cl)c2)nc1-c1ccc(N2CCOCC2)cc1)N[C@@H](Cc1c[nH]c2ccccc12)C(=O)O` [GQN-B36-E, (E)-(3-(1-(3-Chlorophenyl)-3-(4-morpholinophenyl)-1H-pyrazol-4-yl)acryloyl)-L-tryptophan], the IC50 in the data set with MV-4–11 cells [2], in the data set on H929 cells, in the data set on HL-60 cells, with RS4;11 cells and with HeLa cells was more than 50 µM throughout. Moreover, the IC50 at 48 h in “CCK-8 cell viability” was more than 20 µM.
`COC(=O)[C@H](Cc1c[nH]c2ccccc12)NC(=O)/C=C/c1cn(-c2cccc(Cl)c2)nc1-c1ccc(N2CCOCC2)cc1` [GQN-B36-Me, Methyl-(E)-(3-(1-(3-chlorophenyl)-3-(4-morpholinophenyl)-1H-pyrazol-4-yl)acryloyl)-L-tryptophanate]: the IC50 in the data set on MV-4–11 cells [2] is more than 20 µM; with H929 cells, more than 20 µM; in the data set with HL-60 cells, more than 20 µM; in the data set with RS4;11 cells, more than 20 µM; with HeLa cells it was more than 50 µM. In the data set “CCK-8 cell viability”, this compound showed an IC50 at 48 h of more than 20 µM.
As to `O=C(/C=C/c1cn(-c2cccc(Cl)c2)nc1-c1ccc(O)cc1)N[C@@H](Cc1c[nH]c2ccccc12)C(=O)O` [GQN-B37-E, (E)-(3-(1-(3-Chlorophenyl)-3-(4-hydroxyphenyl)-1H-pyrazol-4-yl)acryloyl)-L-tryptophan], the “binding to BCL-2 (in words)” value on BCL-2 (tested up to 100 μM) was “without apparent binding”. For the same compound, the IC50 with MV-4–11 cells [2], in the data set with H929 cells, in the data set on HL-60 cells, in the data set on RS4;11 cells and in the data set on HeLa cells was more than 50 µM throughout. The “binding to BCL-XL (in words)” value on BCL-xL is on record as “without apparent binding”. In addition, the IC50 at 48 h in the data set “CCK-8 cell viability” is more than 20 µM. In addition, the “time at which intracellular GQN-B37-E reached a peak” value in the data set on MV-4–11 cells [4] stood at 3 h. Moreover, the “ligand efficiency (LE)” value on MCL-1 (binding energy divided by the number of heavy atoms, MCL-1) amounted to 0.22 kcal/mol.
Take `COC(=O)[C@H](Cc1c[nH]c2ccccc12)NC(=O)/C=C/c1cn(-c2cccc(Cl)c2)nc1-c1ccc(O)cc1` [GQN-B37-Me, Methyl-(E)-(3-(1-(3-chlorophenyl)-3-(4-hydroxyphenyl)-1H-pyrazol-4-yl)acryloyl)-L-tryptophanate]: the half-life (commonly the time needed for the level to fall by half in the phase considered) at 1.4 μM in [5] is 0.58 h; in data set [8] it was 1.93 h; in data set [9] it was 0.77 h; in [10], 1.92 h. The “induction of late apoptosis (in words)” value in the data set with MV-4–11 cells [1] (doses ranging from 1 to 40 μM) is recorded as “induced late apoptosis in a clear dose-dependent manner”. The “disruption of the MCL-1/BIM interaction” value in data set [6] is recorded as “disrupts the MCL-1/BIM interaction considerably”. In addition, in data set [7], the “cleavage of full-length PARP (116 to 89 kDa)” value was “dose-dependent cleavage”. The IC50 in the data set on MV-4–11 cells [2] was 5.57 ± 0.09 µM; in the data set with H929 cells it was 3.71 ± 0.33 µM; in the data set with HL-60 cells it was more than 20 µM; in the data set on RS4;11 cells it was 15.9 ± 0.98 µM; in the data set with HeLa cells it was more than 20 µM. Also, the IC50 at 48 h in the data set “CCK-8 cell viability” is more than 20 µM. Moreover, the “binding to MCL-1 (in words)” value at MCL-1 (FP assay) is on record as “complete loss of binding”. Moreover, the results for the “tumor growth inhibition on day 20” value in the data set on MV-4–11 xenograft mice [3] (12.5 mg/kg i.p. every 2 days for 20 days) and in the data set on MV-4–11 xenograft mice [3] (50 mg/kg i.p. every 2 days for 20 days) were 30% and 43%, respectively. In addition, the “effect on body weight after 20 days (in words)” value in the data set on MV-4–11 xenograft mice [3] (12.5 mg/kg i.p. every 2 days) is “did not cause significant body weight loss”; in the data set on MV-4–11 xenograft mice [3] (50 mg/kg i.p. every 2 days), “affected body weight”. Besides, the “stability following incubation with GSH (in words)” value in the data set “stability in GSH” is given as “basically intact”. The “lesions in liver, kidney and heart (HE staining)” value in the data set with MV-4–11 xenograft mice [11] (12.5 and 50 mg/kg) is “no evidence of lesions”. For the same compound, in the data set on MV-4–11 xenograft mice [11] (12.5 and 50 mg/kg), the “necrosis of tumor tissues (HE staining)” value is recorded as “dose-dependent necrosis of tumor tissues”. Also, in the data set on MV-4–11 xenograft mice [11] (compared to the blank group), the “level of proliferation in tumor tissues (Ki-67)” value is “significantly reduced”.
In the case of `O=C(/C=C\c1cn(-c2ccccc2)nc1-c1ccc2ccccc2c1)Nc1ccc(C(=O)O)cc1` [LC126, (Z)-4-(3-(3-(Naphthalen-2-yl)-1-phenyl-1H-pyrazol-4-yl)acrylamido)benzoic Acid], the Ki (as a rule, the equilibrium dissociation constant of an inhibitor or competing ligand from its target) at BCL-2 (Ki for BCL-2 (text and Figure 2)) is 10 µM and ~10 µM; on MCL-1 (Ki for MCL-1 (text and Figure 2), FP assay) it was 13 µM and ~10 µM.
